Entries after “also recorded” stand apart in the source; their conditions may differ.
Legend:
VCAM-1 promoter = test: VCAM-1 promoter-luc transient transfection in bovine endothelial cells (BoEC); format: cell-based
Protocol: Transient transfection: Transient transfection was carried out in primary (passage 3 to 6) bovine aortic endothelial cells using the Superfect method (Qiagen, Germany) according to manufacturer's directions. Briefly, cells were plated in 24-well plates at 2.3×10^4 cells per well in DMEM containing 10% fetal calf serum. After 16 h of growth, cells were washed with HBSS and transfected with medium containing Superfect/DNA (ratio 5.5/1) for 4 hours or with FuGene (1.5/1) overnight. Reporter construct pUASx4-TK-luc, chimeric human PPAR-alpha-LBD constructs, PPAR-alpha and LDL receptor (LDLr) overexpression vectors, and the VCAM-1 promoter-luc, have been described previously. A PCMX-B-galactosidase expression vector was used as a transfection control. Cells were maintained overnight in medium, followed by treatment with compounds for 10 hrs in DMEM medium containing 1% FCS (for PPAR-alpha-LBD constructs) and 1% Nutridoma SP (for VCAM-1 promoter studies). Cells lysed in buffer (Pharmingen) were assayed for luciferase activity using a reported assay system (Pharmingen) according to the manufacturer's instructions. β-galactosidase activity was monitored at 540 nm using CRPTG (Boeringer Mannheim) as substrate. LDL− augments TNFα-mediated VCAM-1 expression: Surface expression of VCAM-1 was studied in HUVEC activated by TNFα. […]

[1] = molecular target: T1, PPAR-alpha-ligand binding domain (LBD) (Homo sapiens, UniProt Q07869); test: PPAR-alpha-LBD/GAL4 chimeric construct activation (luciferase) in transiently transfected primary bovine aortic endothelial cells; format: cell-based; conditions: for Effect on VLDL/LPL-mediated PPAR-alpha-LBD activation: agent added to VLDL/LPL treatment; for Effect on LPL/LDL− dependent activation of PPAR-alpha: agent added to LDL−/LPL
T1 construct: yeast GAL4 (fusion partner); expressed in transfected cells; host or cells: primary bovine aortic endothelial cells (passage 3-6)
T1 sequence (Q07869 239-466 limits assumed): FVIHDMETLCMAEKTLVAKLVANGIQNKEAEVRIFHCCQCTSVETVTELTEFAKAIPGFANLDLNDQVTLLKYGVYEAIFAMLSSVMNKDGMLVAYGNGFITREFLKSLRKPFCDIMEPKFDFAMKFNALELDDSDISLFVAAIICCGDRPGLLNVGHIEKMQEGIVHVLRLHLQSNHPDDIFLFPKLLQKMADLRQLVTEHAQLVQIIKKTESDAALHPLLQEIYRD
T1 sequence (P04386 1-147 partner limits assumed): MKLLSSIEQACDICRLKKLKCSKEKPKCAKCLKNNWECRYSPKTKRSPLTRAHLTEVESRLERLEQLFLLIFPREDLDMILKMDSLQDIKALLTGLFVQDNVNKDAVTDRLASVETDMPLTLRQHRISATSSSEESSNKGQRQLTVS
Protocol: Transient transfection: Transient transfection was carried out in 24-well plates at 2.3×10^4 primary bovine aortic EC (passage 3-6) per well using Superfect (Qiagen) or Fugene (F. Hoffmann-La Roche). PCMX-β-galactosidase expression vector was used for transfection control. LPL and LPL mutant expression vectors have been previously characterized. Luciferase (Pharmingen, San Diego, Calif.) and P-galactosidase activity were measured according to manufacturer's protocols.
LPL lipolysis of TG-LP generates PPARα ligands: We tested if LPL generates endogenous PPAR-alpha ligands from TG-LP by analyzing activation of chimeric PPAR-alpha-ligand binding domain (LBD) constructs in yeast GAL4 assays. […] Maximal induction was highest for VLDL (21 fold), followed by LDL (14 fold) and HDL (7 fold).
Transient transfection: Transient transfection was carried out in primary (passage 3 to 6) bovine aortic endothelial cells using the Superfect method (Qiagen, Germany) according to manufacturer's directions. Briefly, cells were plated in 24-well plates at 2.3×10^4 cells per well in DMEM containing 10% fetal calf serum. After 16 h of growth, cells were washed with HBSS and transfected with medium containing Superfect/DNA (ratio 5.5/1) for 4 hours or with FuGene (1.5/1) overnight. Reporter construct pUASx4-TK-luc, chimeric human PPAR-alpha-LBD constructs, PPAR-alpha and LDL receptor (LDLr) overexpression vectors, and the VCAM-1 promoter-luc, have been described previously. A PCMX-B-galactosidase expression vector was used as a transfection control. Cells were maintained overnight in medium, followed by treatment with compounds for 10 hrs in DMEM medium containing 1% FCS (for PPAR-alpha-LBD constructs) and 1% Nutridoma SP (for VCAM-1 promoter studies). Cells lysed in buffer (Pharmingen) were assayed for luciferase activity using a reported assay system (Pharmingen) according to the manufacturer's instructions. β-galactosidase activity was monitored at 540 nm using CRPTG (Boeringer Mannheim) as substrate.

[2] = test system: acyl-coenzymeA-oxidase (ACO); test: ACO mRNA expression (Northern blot) in HepG2 and primary human macrophages; format: cell-based
Protocol: Cell Culture: Circulating human monocytes were isolated from healthy volunteers. Differentiated cells (day 7-10) were treated in M199 medium. Peritoneal Mφ were isolated after 5% thioglycollate broth injection into 2-6 month old PPAR-alpha^+/+ and PPAR-alpha^−/− mice. Mφ were cultured in 10% FCS/DMEM 24 h prior to stimulation. HepG2 cells (ATCC, Manassas, Va.) were cultured in 10% FCS/DMEM.
RNA analysis: Total cell RNA was isolated using RNAEasy kit (Qiagen, Valencia, Calif.), separated using a 1% agarose gel, transferred to a Hydrobone membrane (Amersham, Piscataway, N.J.) and Northern blotting was then performed. cDNA probes for LPL and ACO were obtained from ATCC (Manassas, Va.).
LPL lipolysis of TG-LP activates PPARα-regulated genes: We tested if activation of PPAR-alpha by VLDL/LPL induced expression of an established PPAR-alpha target gene, acyl-coenzymeA-oxidase (ACO). […] In vivo, increased ACO expression has been shown in LPL-overexpressing mice.

VCAM-1 = test: Cell surface ELISA of VCAM-1 expression in HUVEC; format: cell-based, human; conditions: single stimulus
Protocol: Cell Culture: Human endothelial cells were isolated from umbilical veins and cultured in M199 medium (BioWittaker) containing penicillin/streptomycin, Fungozom, ECGF and 5% fetal calf serum. Cells from passage 3 to 5 were used for experiments. Cells were pretreated with 100 uM fenofibric acid or WY 14643 for 24 h and with LDL species/LPL for 1 h prior to addition of 50 ng/ml TNFα. Subsequent duration of incubations varied. Prior to any procedure cells were washed with ice-cold PBS.
Cell surface ELISA assays were preformed in 96-well plates on confluent monolayers of HUVEC. Treated cells were maintained on ice for 10 minutes, washed with cold PBS and incubated with monoclonal antibodies raised against human VCAM-1. VCAM-1 expression was visualized using alkaline phosphate secondary antibody and measured at […].
LDL− augments TNFα-mediated VCAM-1 expression: Surface expression of VCAM-1 was studied in HUVEC activated by TNFα. Cell stimulation with LDL− lead to approximately a two-fold increase in VCAM-1 expression. In presence of TNFα, VCAM-1 expression was increased 5-fold. […] Here we found a 50% decrease in VCAM-1 expression induced by LDL− and TNFα but pretreated with PPAR-α agonists. […] The VCAM-1 activation was reduced by two-fold in cells ectopically expressing human PPAR-alpha.

CC(C)(Oc1ccc(C(=O)c2ccc(Cl)cc2)cc1)C(=O)O [Fenofibric acid]
Decrease in LDL−/TNFα dependent VCAM-1 induction (VCAM-1 promoter; cells co-transfected with PPAR-alpha vector): 60% | Decrease in LDL−/TNFα dependent VCAM-1 induction (VCAM-1 promoter; cells co-transfected with control vector): 40%

CCCCCCCCCCC[C@@H](C[C@@H]1OC(=O)[C@H]1CCCCCC)OC(=O)[C@H](CC(C)C)NC=O [tetrahydrolipstatin]
Effect on VLDL/LPL-mediated PPAR-alpha-LBD activation [1]: inhibited LPL-mediated PPAR-alpha-LBD activation in a dose-dependent fashion | Effect on VLDL-induced ACO response [2]: inhibited this VLDL response

ApoCIII: natural LPL inhibitor
Effect on LPL/LDL− dependent activation of PPAR-alpha [1]: inhibited; also recorded: abolished

TNFα
Increase in VCAM-1 surface expression (VCAM-1): 5 fold

cyclochalasin
Effect on VLDL/LPL-mediated PPAR-alpha-LBD activation [1]: None of these treatments had any effect

heparin
Effect on VLDL/LPL-mediated PPAR-alpha-LBD activation [1]: None of these treatments had any effect

monoacylglycerols [MAG]
PPAR-alpha-LBD activation by lipolytic products (significant activators of PPAR-alpha) ([1]; lipid added alone): activates PPAR-alpha-LBD

B1: heat-inactivated LPL: heat-inactivated lipoprotein lipase (protein, UniProt P06858 28-475, looked up)
Lipoprotein lipase: ADQRRDFIDIESKFALRTPEDTAEDTCHLIPGVAESVATCHFNHSSKTFMVIHGWTVTGMYESWVPKLVAALYKREPDSNVIVVDWLSRAQEHYPVSAGYTKLVGQDVARFINWMEEEFNYPLDNVHLLGYSLGAHAAGIAGSLTNKKVNRITGLDPAGPNFEYAEAPSRLSPDDADFVDVLHTFTRGSPGRSIGIQKPVGHVDIYPNGGTFQPGCNIGEAIRVIAERGLGDVDQLVKCSHERSIHLFIDSLLNEENPSKAYRCSSKEAFEKGLCLSCRKNRCNNLGYEINKVRAKRSSKMYLKTRSQMPYKVFHYQVKIHFSGTESETHTNQAFEISLYGTVAESENIPFTLPEVSTNKTYSFLIYTEVDIGELLMLKLKWKSDSYFSWSDWWSSPGFAIQKIRVKAGETQKKVIFCSREKVSHLQKGKAPAVFVKCHDKSLNKKSG
modifications: heat-inactivated
Effect on LPL/LDL− dependent activation of PPAR-alpha [1]: abolished | PPAR-alpha-LBD activation after enzyme treatment of lipoproteins ([1]; enzyme plus lipoprotein): failed to induce PPAR-alpha-LBD activation

— US6869603B2, “Lipoprotein lipase and lipoprotein lipase activators in the treatment of inflammatory conditions” (The Brigham and Women's Hospital, Inc., priority 2001, dated 2005)
